This is an account of results in patent publication US10091997B2, “Composition for inhibition of insect host sensing” (Vanderbilt University, priority 2010, dated 2018).

For test [1], the system named is AgORco-expressing neurons (CpB/C). As to the kind of experiment: single sensillum recordings, capitate peg sensilla, CpB/C neurons. The test is classed as in vivo, Anopheles gambiae. The settings on record: delivered via glass recording electrode, adult females. The protocol: Single sensillum recordings were performed on 4-7 day old, non-bloodfed Anopheles gambiae females maintained on 10% sucrose and a 12/12 light dark cycle. Legs, wings and antennae were removed from cold-anesthetized females that were then restrained on double-stick tape with thread. A glass reference electrode filled with Sensillar lymph ringers (SLR)(Xu, 2005) was placed in the eye and the recording electrode filled with DMSO or VUAA1 diluted in SLR was used to puncture sensilla at their base. Responses were recorded and digitized using a Syntech IDAC-4 and analyzed with AutoSpike software (Syntech). New glass recording pipettes were used for every recording. Data was sampled at 12 kHz.
The inventors next performed single unit, extracellular electrophysiological recordings on adult female An. gambiae to determine whether VUAA1 could activate AgORco-expressing odorant receptor neurons (ORNs) in vivo. ORNs, which express AgORco and a conventional OR are enclosed within the hair-like sensilla present on olfactory tissues. […] CpA is clearly distinguished from CpB/C by its large action potential amplitude. The action potential amplitudes of CpB and CpC are much smaller and in some preparations indistinguishable from each other; as a result, the spike activity of CpB and CpC neurons were binned for data analysis. […]

The target of another test is T1, DmOR83b (Drosophila melanogaster, UniProt Q9VNB5).
T1 construct: expressed in transfected cells; host or cells: Flp-In T-REx 293 (HEK), transient, pCI vector, GFP co-transfected
T1 sequence (Q9VNB5 1-486): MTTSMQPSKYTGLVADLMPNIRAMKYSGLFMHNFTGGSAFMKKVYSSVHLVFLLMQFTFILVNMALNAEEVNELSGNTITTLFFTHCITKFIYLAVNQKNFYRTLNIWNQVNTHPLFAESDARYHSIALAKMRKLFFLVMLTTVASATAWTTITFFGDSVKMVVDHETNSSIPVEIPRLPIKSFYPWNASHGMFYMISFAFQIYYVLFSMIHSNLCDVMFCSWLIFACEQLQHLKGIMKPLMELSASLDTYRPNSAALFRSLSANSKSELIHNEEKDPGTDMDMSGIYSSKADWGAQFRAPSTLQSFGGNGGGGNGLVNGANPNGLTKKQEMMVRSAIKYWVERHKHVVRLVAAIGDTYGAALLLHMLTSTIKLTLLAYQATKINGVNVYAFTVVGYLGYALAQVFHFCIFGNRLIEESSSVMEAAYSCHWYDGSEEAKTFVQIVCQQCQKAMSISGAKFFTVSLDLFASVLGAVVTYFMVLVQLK
As to the kind of experiment: whole-cell patch clamp, HEK cells transiently transfected with DmOR83b. The test is classed as cell-based. The settings on record: HEK cells expressing DmOR83b, −60 mV. An excerpt:
For transient transfections, ORs were cloned into pCI (Promega) and transfected into Flp-In™ T-REx™293 cell lines (Invitrogen) with Fu GENE6 (Roche). For the creation of stable cell lines, a cell culture expression vector capable of expressing AgORco in conjunction with a conventional OR, pcDNA5/FRT/TO (Invitrogen) was modified to create two individual expression cassettes each under the control of a separate CMV/TetO2 promoter and a BGH poly-adenylation signal. Cells (as above) were transfected with the modified pcDNA5 plasmid along with POG44 (a Flp recombinase expression plasmid) to facilitate site-specific recombination. Stable cell lines were selected using Hygromycin B (Invitrogen). Cells were maintained in DMEM (Invitrogen) supplemented with 10% Tetracycline-free FBS (HyClone) and 15 μg/ml Blasticidin. […] Baseline readings were taken for 20 s before automated addition of compound previously diluted in DMSO and assay buffer. […]
Currents from OR-expressing HEK293 cells were amplified with an Axopatch 200b Amplifier (Axon Instruments) and digitized through a Digidata 1322A (Axon Instruments). Electrophysiological data was recorded and analyzed using pCLAMP 10 (Axon Instruments). […]

The subject of a further test is AgORco+AgOR10. Briefly: whole-cell patch clamp, HEK293 cells expressing AgORco+AgOR10. The test is classed as cell-based, Anopheles gambiae. The settings on record: AgORco+AgOR10 cells. The protocol:
Currents from OR-expressing HEK293 cells were amplified with an Axopatch 200b Amplifier (Axon Instruments) and digitized through a Digidata 1322A (Axon Instruments). Electrophysiological data was recorded and analyzed using pCLAMP 10 (Axon Instruments). Electrodes were fabricated from quartz tubing (Sutter Instruments) and pulled to 4-6 MΩ for whole cell recording. Electrodes were filled with internal solution (120 mM KCl, 30 mM D-glucose, 10 mM HEPES, 2 mM MgCl2, 1.1 mM EGTA, and 0.1 CaCl2 (pH 7.35, 280 mOsm). External (bath) solution contained 130 mM NaCl, 34 mM D-glucose, 10 mM HEPES, 1.5 mM CaCl2, 1.3 mM KH2PO4, and 0.5 MgSO4 (pH 7.35, 300 mOsm). Compounds were diluted in external solution and locally perfused to the recording cell using Perfusion Pencil (Automate Scientific) and controlled by a ValveLink 8.2 controller (Automate Scientific). Whole cell recordings were sampled at 10 kHz and filtered at 5 kHz. Outside-out patches were obtained using 10-15MΩ electrodes pulled from standard glass capillaries (World Precision Instruments) and fire-polished with an MF-830 micro forge (Narishige). Single channel recordings were sampled at 20 kHz. Recordings were reduced to 1 kHz and low-pass filtered at 500 Hz for display and analysis using QuB (SUNY at Buffalo).
To test the hypothesis that VUAA1 directly agonized AgORco, whole-cell patch clamp responses were examined in AgORco+AgOR10 expressing cells as well HEK293 cells stably expressing AgORco alone. […] The VUAA1-dependent currents in AgORco+AgOR10 cells resembled those resulting from application of benzaldehyde, an orthosteric agonist of AgOR10 (FIG. 3C) (Wang, 2010; Carey, 2010). AgORco+AgOR10 cells were more sensitive to VUAA1 than AgORco cells, producing inward currents at −5.0 log M, a concentration at which AgORco had no response. […] To investigate the specificity of VUAA1 agonism, the inventors transiently transfected HEK cells with the AgORco orthologs of Drosophila melanogaster and Heliothis virescens, DmOR83b and HvOR2 respectively.

For `CCc1ccc(NC(=O)CSc2nnc(-c3cccnc3)n2CC)cc1` [VUAA1], the “spike frequency of CpB/C neurons” value in test [1] was “increased the spike frequency of CpB/C neurons in a dose-dependent manner”. Also, the results for the whole-cell currents result at DmOR83b and with AgORco+AgOR10 (clamped at −60 mV) were “robust inward currents” and “concentration-dependent inward currents”, respectively. Also, the “concentration producing inward currents” value with AgORco+AgOR10 (whole-cell) is −5.0 log M.
